Reference: patent publication US20080140036A1, “Antimicrobial Composition” (priority 2004, published 2008)

Legend:
[1] = test system: S. saprophyticus NCIMB 8711; assay: MIC of triclosan (direct contact); format: cell-based
[2] = test system: Strain T1 MSSA; assay: MIC of triclosan (direct contact); format: cell-based, S. aureus
[3] = test system: Strain T4 MSSA; assay: MIC of triclosan (direct contact); format: cell-based, S. aureus
[4] = test system: Oxford S. aureus NCTC 6571; assay: ZOI of triclosan vapours (vapour phase); format: cell-based
[5] = test system: S. aureus NCBC 11882; assay: ZOI of triclosan vapours (vapour phase); format: cell-based
[6] = test system: S. epidermidis NCTC 7944; assay: ZOI of triclosan vapours (vapour phase); format: cell-based
[7] = test system: S. saprophyticus NCIMB 8711; assay: ZOI of triclosan vapours (vapour phase); format: cell-based
[8] = test system: S. haemolyticus NCTC 11042; assay: ZOI of triclosan vapours (vapour phase); format: cell-based
[9] = test system: Strain T1 MSSA; assay: ZOI of triclosan vapours (vapour phase); format: cell-based, S. aureus
[10] = test system: Strain T4 MSSA; assay: ZOI of triclosan vapours (vapour phase); format: cell-based, S. aureus
[11] = test system: MSSA (46); assay: ZOI of triclosan vapours (vapour phase); format: cell-based, S. aureus
[12] = test system: MSSA (47); assay: ZOI of triclosan vapours (vapour phase); format: cell-based, S. aureus
[13] = test system: MSSA (48); assay: ZOI of triclosan vapours (vapour phase); format: cell-based, S. aureus
[14] = test system: all staphylococcal strains; assay: Vapours of triclosan, all strains; format: cell-based, Staphylococcus; conditions: vapour phase
[15] = test system: MRSA 11; assay: ZOI of triclosan vapours (vapour phase)
[16] = test system: MRSA 13; assay: ZOI of triclosan vapours (vapour phase)
[17] = test system: MRSA 14; assay: ZOI of triclosan vapours (vapour phase)
[18] = test system: MRSA 16; assay: ZOI of triclosan vapours (vapour phase)
[19] = test system: MRSA 17; assay: ZOI of triclosan vapours (vapour phase)
[20] = test system: MRSA 20; assay: ZOI of triclosan vapours (vapour phase)
[21] = test system: EMRSA m97 271 031 phage group 1; assay: ZOI of triclosan vapours (vapour phase)
[22] = test system: EMRSA m97 271 038 phage group 2; assay: ZOI of triclosan vapours (vapour phase)
[23] = test system: EMRSA j95 922 phage group 3; assay: ZOI of triclosan vapours (vapour phase)
[24] = test system: EMRSA m97271052 phage group 4; assay: ZOI of triclosan vapours (vapour phase)
[25] = test system: EMRSA m972 71041 phage group 5; assay: ZOI of triclosan vapours (vapour phase)
[26] = test system: EMRSA m97 271 047 phage group 8; assay: ZOI of triclosan vapours (vapour phase)
[27] = test system: EMRSA m972 710 40 phage group 9; assay: ZOI of triclosan vapours (vapour phase)
[28] = test system: EMRSA m97 271 036 phage group 11; assay: ZOI of triclosan vapours (vapour phase)
[29] = test system: EMRSA m97 271 042 phage group 12; assay: ZOI of triclosan vapours (vapour phase)
[30] = test system: EMRSA g96 139 515 phage group 15; assay: ZOI of triclosan vapours (vapour phase)

Oc1cc(Cl)ccc1Oc1ccc(Cl)cc1Cl [triclosan]
MIC [1]: 2 Mg ml^−1− | MIC [2]: 0.5 Mg ml^−1− | MIC [3]: 0.25 Mg ml^−1− | ZOI Average ([4]; average): 51 mm | ZOI 1 ([4]; replicate 1): 50 mm | ZOI 2 ([4]; replicate 2): 52 mm | ZOI Average ([5]; average): 48 mm | ZOI 1 ([5]; replicate 1): 47 mm | ZOI 2 ([5]; replicate 2): 49 mm | ZOI Average ([6]; average): 50.5 mm | ZOI 1 ([6]; replicate 1): 50 mm | ZOI 2 ([6]; replicate 2): 51 mm | ZOI Average ([7]; average): 37.5 mm | ZOI 1 ([7]; replicate 1): 33 mm | ZOI 2 ([7]; replicate 2): 42 mm | ZOI Average ([8]; average): 46 mm | ZOI 1 ([8]; replicate 1): 48 mm | ZOI 2 ([8]; replicate 2): 44 mm | ZOI Average ([9]; average): 45.5 mm | ZOI 1 ([9]; replicate 1): 46 mm | ZOI 2 ([9]; replicate 2): 45 mm | ZOI Average ([10]; average): 51 mm | ZOI 1 ([10]; replicate 1): 50 mm | ZOI 2 ([10]; replicate 2): 52 mm | ZOI Average ([11]; average): 45 mm | ZOI 1 ([11]; replicate 1): 45 mm | ZOI 2 ([11]; replicate 2): 45 mm | ZOI Average ([12]; average): 51.5 mm | ZOI 1 ([12]; replicate 1): 52 mm | ZOI 2 ([12]; replicate 2): 51 mm | ZOI Average ([13]; average): 48.5 mm | ZOI 1 ([13]; replicate 1): 49 mm | ZOI 2 ([13]; replicate 2): 48 mm | effect of vapours on growth [14]: effective at inhibiting growth of all staphylococcal strains | ZOI Average ([15]; average): 43 mm | ZOI 1 ([15]; replicate 1): 43 mm | ZOI 2 ([15]; replicate 2): 43 mm | ZOI Average ([16]; average): 47 mm | ZOI 1 ([16]; replicate 1): 47 mm | ZOI 2 ([16]; replicate 2): 47 mm | ZOI Average ([17]; average): 55 mm | ZOI 1 ([17]; replicate 1): 55 mm | ZOI 2 ([17]; replicate 2): 55 mm | ZOI Average ([18]; average): 55.5 mm | ZOI 1 ([18]; replicate 1): 55 mm | ZOI 2 ([18]; replicate 2): 56 mm | ZOI Average ([19]; average): 32 mm | ZOI 1 ([19]; replicate 1): 31 mm | ZOI 2 ([19]; replicate 2): 33 mm | ZOI Average ([20]; average): 55 mm | ZOI 1 ([20]; replicate 1): 55 mm | ZOI 2 ([20]; replicate 2): 55 mm | ZOI Average ([21]; average): 41 mm | ZOI 1 ([21]; replicate 1): 42 mm | ZOI 2 ([21]; replicate 2): 40 mm | ZOI Average ([22]; average): 57 mm | ZOI 1 ([22]; replicate 1): 57 mm | ZOI 2 ([22]; replicate 2): 57 mm | ZOI Average ([23]; average): 54 mm | ZOI 1 ([23]; replicate 1): 55 mm | ZOI 2 ([23]; replicate 2): 53 mm | ZOI Average ([24]; average): 50 mm | ZOI 1 ([24]; replicate 1): 50 mm | ZOI 2 ([24]; replicate 2): 50 mm | ZOI Average ([25]; average): 55 mm | ZOI 1 ([25]; replicate 1): 55 mm | ZOI 2 ([25]; replicate 2): 55 mm | ZOI Average ([26]; average): 52 mm | ZOI 1 ([26]; replicate 1): 52 mm | ZOI 2 ([26]; replicate 2): 52 mm | ZOI Average ([27]; average): 55 mm | ZOI 1 ([27]; replicate 1): 55 mm | ZOI 2 ([27]; replicate 2): 55 mm | ZOI Average ([28]; average): 52 mm | ZOI 1 ([28]; replicate 1): 52 mm | ZOI 2 ([28]; replicate 2): 52 mm | ZOI Average ([29]; average): 45 mm | ZOI 1 ([29]; replicate 1): 45 mm | ZOI 2 ([29]; replicate 2): 45 mm | ZOI Average ([30]; average): 47 mm | ZOI 1 ([30]; replicate 1): 47 mm | ZOI 2 ([30]; replicate 2): 47 mm
